The values that follow come from patent US5304367A, “In vivo brain imaging agent and method for diagnosis of psychiatric disorders” (New York University, priority 1990, dated 1994).

Values joined by “and” are separate entries in the source; they are usually repeats but may differ in a detail not shown here. Equal values may be shown once. Read-outs that look alike come from different tables or passages of the source. A value given as a limit tells only on which side of the number the result lay.

Data set [1] relates to β2 receptors. As to the kind of experiment: autoradiographic mapping of β2 receptors (iodopindolol in the presence of metoprolol). As to conditions: FIG. 4. In kind it is binding, human. As to the method:
(§1) Slides holding tissue sections are incubated for about 70 min at approximately 25° C. with 0.15 nM ^125 I-iodopindolol (New England Nuclear, 2200 Ci/mmole) in 25 mM Tris buffer, pH 7.5, containing 150 mM NaCl. Nonspecific binding is determined in the presence of 1 μM propranolol (see Examples, below). Zinterol, a selective β2 blocker, or metoprolol, a selective β1 antagonist, are added to the incubation buffer at 0.1 μM to achieve selective labeling of the β1 and β2 receptor subtypes, respectively. The incubation is followed by three 20 min washes in the same ice cold buffer. Slides are then dipped in ice cold distilled water to remove buffer salts, dried on a 50° C. slide warmer and apposed to ^3 H-sensitive film (Amersham ^3 H-hyperfilm) for 48-96 hours. The film is coexposed to commercial iodine standards (available from Amersham, for example). Film is developed manually using standard developer and fixer such as those available from the Eastman-Kodak Company. […]
(§2) Based on 3 brains, a total Bmax of 50-100 fm/mg protein was calculated, with the β1 receptor subtype accounting for the majority of the sites (Bmax: 40-60 fm/mg protein) and a smaller β2 receptor fraction (Bmax: 25-40 fm/mg protein). […]

The test system of data set [2] is β2. As to conditions: experimental animals; cited from earlier work.
Data set [3] concerns β1 receptors. As to the kind of experiment: autoradiographic mapping of β1 receptors (iodopindolol in the presence of zinterol). The class given is binding, human. As to conditions: FIG. 3. The procedure: as §1, §2
Data set [4] concerns β1. As to conditions: experimental animals; cited from earlier work.
Data set [5] is described as follows: whole body distribution, mice, 2 μCi. The class given is in vivo, mouse. As to conditions: conclusion from whole body distribution studies. The procedure: In a subsequent study, whole body distribution was examined in mice following tail vein injection of 2 μCi ^125 I-iodopindolol. Animals were sacrificed at various time points up to 22 hours post-injection. Percent injected dose (%ID) was determined in 11 organs, blood and urine. At one minute, lungs contained the highest %ID (17%), heart 3-4 %ID and brain 0.3%ID.

The conditions of data set [6]: experimental animals; cited from earlier work.
The test system of data set [7] is serotonin receptors of the 5HT1D subtype. As to conditions: unlike most other βAR antagonists; cited from earlier work.
Data set [8] has as its target beta adrenergic receptors (βAR). As to conditions: βAR antagonist; Barovsky et al.; read-out: affinity; cited from earlier work.
Data set [9] deals with βAR. The data set is described as follows: in vivo autoradiography of brain distribution and kinetics. Also noted: species or system rat. As to the method: In vivo autoradiography was been used to study brain distribution and kinetics of iodopindolol. Groups of rats (3 per treatment/time) were injected intravenously (i.v.) in the tail vein with 250 μCi/kg ^125 I-iodopindolol, either alone or 5 min after an intraperitoneal injection of the βAR antagonist (beta blocker) propranolol (5 mg/kg), to define nonspecific binding. Animals were sacrificed by decapitation 15, 30, 60 and 90 minutes post- injection and the brains quickly removed. The right hemisphere and a blood sample were used for direct counting while the left hemisphere was frozen immediately on dry ice and then sectioned sagittally. Sections were apposed to hyperfilm for one week.

For data set [10], the system named is serotonin receptors of the 5HT1B subtype. As to conditions: unlike most other βAR antagonists; cited from earlier work.
Data set [11] has as its system β1 receptor subtype. The data set is described as follows: ^3 H-DHA saturation binding on homogenates of frontal superior gyrus, β1. Also noted: species or system human. As to conditions: 3 brains, 0.1 μM zinterol or metoprolol for subtype differentiation. As to the method: (§3) Following the characterization and localization of a group effect (such as, for example, age, sex or suicide) by autoradiography, samples from at least one involved region are dissected from the relevant blocks and homogenized for saturation binding studies using well known techniques.
(§4) Based on 3 brains, a total Bmax of 50-100 fm/mg protein was calculated, with the β1 receptor subtype accounting for the majority of the sites (Bmax: 40-60 fm/mg protein) and a smaller β2 receptor fraction (Bmax: 25-40 fm/mg protein). The Bmax values for the two subtypes added up to total specific binding in each individual brain, confirming the use of the two blocker concentrations for receptor subtype differentiation.

Data set [12] has as its system β-adrenergic receptor. As to the kind of experiment: [^3 H]DHA saturation binding in prefrontal cortical homogenates from suicides and controls (Scatchard analysis). More on the design: species or system human.
Source text: as §3
Fourteen suicide and 14 pair-matched control brains were collected over 3 years from the medical examiner's offices in New York City and Jaffa, ISRAEL. […] The results of the coroner's examination as well as the results of broad-spectrum toxicological tests performed by the forensic laboratory were made available within 8 weeks. Only drug-free and pathology-free brains were included. For each suicide brain, a control matched for sex and age group with a PMD under 48 hours was collected the same day or within a few days, so that the pairs are also matched for storage time. The brains from each pair were dissected or sectioned on the same day and receptors were labeled in the same experiment, by an experimenter blind to the identity of the samples.
(§5) The brains were removed at autopsy and the right hemisphere sliced in the coronal plane. The slices, about 2 cm thick, were examined for signs of pathology and frozen in powdered dry ice, then removed for long-term storage at -80° C. Grey matter from the most frontal slice (prefrontal cortex) was dissected with a scalpel and homogenized. Crude membrane preparations were made from the homogenates, divided and stored frozen for saturation binding assays. The other slices were used for autoradiography. Eight concentrations of [^3 H]DHA (New England Nuclear, specific activity: 72 Ci/mmol), ranging from 0.1 to 4 nM were incubated with samples of the membrane preparations, with parallel incubates containing 10^-6 M propranolol to establish non-specific binding (Biegon et al., Life Sci. 32:2015-2022 ;(1983)); Enna et al., J. Neurochem. 28:233-236 (1983)). β-Receptor subtypes were distinguished by coincubation of the radioligand 10^-6 M concentrations of either zinterol, a […] blocker, or […] blocker, in 5 out of the 10 pairs included in this part of the study (Ecker et al., Int. Catecholamine Symp. Abstr. 6:52 (1987)). The affinity (Kd and maximal density (Bmax) of the receptors were derived from Scatchard analysis (Scatchard G., Ann. N.Y. Acad. Sci. 51:660-672 (1949)) of the binding data and protein was assayed by the method of Lowry et al.(Lowry et al., J. Biol. Chem. 193:265-275 (1951)).
The binding characteristics of βARs were studied in prefrontal cortical homogenates from 10 pairs. The region corresponds to Brodmann's areas 9 and 10.

In data set [13] the test system is βAR. The data set is described as follows: ^3 H-DHA saturation binding on homogenates of frontal superior gyrus, total. As to conditions: 3 brains. More on the design: species or system human.
The target of data set [14] is T1, β2-receptors (Homo sapiens, UniProt P07550).
T1 construct: Crude membrane preparations were made from the homogenates; from tissue; host or cells: human post-mortem prefrontal cortex (grey matter), crude membranes
T1 sequence (P07550 whole entry, looked up): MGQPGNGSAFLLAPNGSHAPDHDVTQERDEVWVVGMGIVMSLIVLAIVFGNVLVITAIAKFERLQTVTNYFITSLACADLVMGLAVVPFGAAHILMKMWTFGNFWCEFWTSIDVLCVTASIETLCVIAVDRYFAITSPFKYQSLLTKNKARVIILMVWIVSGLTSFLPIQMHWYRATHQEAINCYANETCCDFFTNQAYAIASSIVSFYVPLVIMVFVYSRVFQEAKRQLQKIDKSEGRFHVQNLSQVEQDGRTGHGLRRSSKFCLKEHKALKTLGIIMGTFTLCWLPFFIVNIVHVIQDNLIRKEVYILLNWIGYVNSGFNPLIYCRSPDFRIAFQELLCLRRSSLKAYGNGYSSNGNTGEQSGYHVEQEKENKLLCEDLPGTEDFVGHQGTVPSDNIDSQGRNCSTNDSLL
The data set is described as follows: [^3 H]DHA saturation binding in prefrontal cortical homogenates, β2-receptors.
Source text: as §3, §5

For data set [15], the system named is β2 receptor. As to the kind of experiment: ^3 H-DHA saturation binding on homogenates of frontal superior gyrus, β2. As to conditions: 3 brains, 0.1 μM zinterol or metoprolol for subtype differentiation. Also noted: species or system human. The procedure:
as §3, §4

The target in data set [16] is T2, β1-receptors (Homo sapiens, UniProt P08588).
T2 construct: Crude membrane preparations were made from the homogenates; from tissue; host or cells: human post-mortem prefrontal cortex (grey matter), crude membranes
T2 sequence (P08588 whole entry): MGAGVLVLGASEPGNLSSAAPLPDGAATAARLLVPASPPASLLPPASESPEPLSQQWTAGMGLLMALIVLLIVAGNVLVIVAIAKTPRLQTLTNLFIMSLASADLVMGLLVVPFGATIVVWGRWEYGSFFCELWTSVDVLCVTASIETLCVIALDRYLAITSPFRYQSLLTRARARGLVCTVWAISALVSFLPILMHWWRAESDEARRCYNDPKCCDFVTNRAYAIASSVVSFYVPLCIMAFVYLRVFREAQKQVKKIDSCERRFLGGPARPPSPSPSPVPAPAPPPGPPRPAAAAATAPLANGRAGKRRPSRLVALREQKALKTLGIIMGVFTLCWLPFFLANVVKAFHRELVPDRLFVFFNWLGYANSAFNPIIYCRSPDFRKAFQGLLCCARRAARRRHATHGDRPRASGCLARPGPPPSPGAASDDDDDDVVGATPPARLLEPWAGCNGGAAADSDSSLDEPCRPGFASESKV
As to the kind of experiment: [^3 H]DHA saturation binding in prefrontal cortical homogenates, β1-receptors.
Source text: as §3, §5

Regarding `CC(C)NCC(O)COc1cccc2[nH]cc(I)c12` (stereo not drawn) [iodopindolol], the “distribution of β2 receptors” value in data set [1] was “found in internal cortical layers and predominate in hippocampus, cerebellum and white matter”. Moreover, the “labelling of βAR subtype β2 in vivo” value in [2] was “labels both βAR subtypes, β1 and β2, in vivo”. In addition, the “distribution of β1 receptors” value in data set [3] was “predominate in the prefrontal cortical external layers and in basal ganglia”. Also, the “labelling of βAR subtype β1 in vivo” value in data set [4] is “labels both βAR subtypes, β1 and β2, in vivo”. Also, the brain uptake result in [5] is given as “hindered by the blood brain barrier”. Moreover, in data set [6], the “crossing of blood brain barrier” value is “crosses the blood brain barrier”. The “affinity for serotonin receptors, 5HT1D” value in data set [7] was “low affinity”. Also, the Kd in [8] was less than 1 nM. Besides, in [9] (15 and 30 minutes post-injection, 250 μCi/kg i.v., propranolol 5 mg/kg i.p.), the “difference between total and nonspecific binding to brains” value was “very small difference”. The “brain binding of radiolabel, propranolol pre-injected” value in [9] (60 and 90 minutes, propranolol 5 mg/kg i.p.) is “low and uniform brain binding of radiolabel”. For the same compound, in data set [9] (60 and 90 minutes, without propranolol), the “distribution of binding in the brain” value is “high levels in frontal cortex, caudate, and cerebellum; moderate to low levels in various hippocampal structures and thalamic nuclei; low levels in brain stem and medulla”. The “difference between iodopindolol alone and propranolol-pretreated animals” value in [9] (FIG. 5, 15 minutes post injection) is reported as “no apparent difference”. The distribution of radioactivity result in data set [9] (FIG. 6, 60 minutes post injection) was “relatively high levels in external cortical layers, caudate and cerebellum and relatively low levels in hippocampus”. Moreover, in data set [9] (between 60 and 90 minutes), the “brain levels of bound radiolabel” value was “do not decline appreciably between 60 and 90 minutes”. Also, in data set [9] (one hour after injection), the “specific labelling of βAR in the brain” value is “specifically labels βAR”. In addition, the “affinity for serotonin receptors, 5HT1B” value in data set [10] is on record as “low affinity”.
As for `CCCc1ccccc1OCC(O)CNC(C)C` (stereo not drawn) [[^3 H]DHA, dihydroalprenolol], in [11], the “Bmax, β1 receptor subtype” value was 40-60 fm/mg protein. In addition, the Bmax in data set [12] (control, individual of matched pair, prefrontal cortex) is 65 fm/mg P and 92 fm/mg P and 44 fm/mg P and 31 fm/mg P and 86 fm/mg P and 55 fm/mg P and 78 fm/mg P and 36 fm/mg P and 32 fm/mg P and 53 fm/mg P; in data set [12] (suicide, individual of matched pair, prefrontal cortex), 108 fm/mg P and 81 fm/mg P and 85 fm/mg P and 67 fm/mg P and 119 fm/mg P and 97 fm/mg P and 106 fm/mg P and 58 fm/mg P and 53 fm/mg P and 83 fm/mg P. In addition, the Kd in data set [12] (control, individual of matched pair, prefrontal cortex, read-out: Kd) is 0.84 nM and 0.8 nM and 0.3 nM and 0.4 nM and 0.6 nM and 1.25 nM and 1.5 nM; in data set [12] (suicide, individual of matched pair, prefrontal cortex, read-out: Kd), 0.98 nM and 0.9 nM and 1.5 nM and 1.2 nM and 1.4 nM and 1.1 nM and 1 nM and 0.4 nM and 0.8 nM; in data set [12] (suicide, mean of 10, SEM 0.1, read-out: Kd, mean), 1 nM; in data set [14] (control), 1.1 ± 0.13 nM; in data set [16] (control, n=5), 2.2 ± 0.5 nM; in [16] (suicide, n=5), 1.7 ± 0.3 nM. Moreover, the “Bmax, mean” value is listed as 57.7 fm/mg P in data set [12] (control, mean of 10, SEM 7.9) and 86.0 fm/mg P in data set [12] (suicide, mean of 10, SEM 7.8, P < 0.0003). The “change in receptor affinity (Kd)” value in data set [12] (suicide vs control) was “no significant change in receptor affinity”. Also, in data set [12] (suicide vs control, 9 of the 10 pairs), the “Increases in binding (range)” value is 30% to 115%. In data set [12] (suicide vs control, P<0.0003), the “Increases in binding (mean)” value turned out to be 48%. In addition, the “total Bmax” value in data set [13] was 50-100 fm/mg protein. Moreover, the “Bmax, β2-receptors” value was 28.0±4.0 fm/mg protein in [14] (control) and 39.2±3.1 fm/mg protein in data set [14] (suicide, p=0.1). Besides, the “Bmax, β2 receptor” value in data set [15] is 25-40 fm/mg protein. The “Bmax, β1-receptors” value came to 37.7±9.3 fm/mg protein in data set [16] (control, n=5) and 50.3±9.4 fm/mg protein in data set [16] (suicide, n=5, P<0.015).
